For this assay, the target named is DGKζ (Homo sapiens (Human), UniProt Q13574). The assay is described as follows: Assay 1 or 2: In Vitro DGK Inhibition Assays (DGKζ LIPGLO, extruded liposome). To be noted: extruded liposome substrate, 150 μM ATP. The format is biochemical. As for the experimental part: Assay 1: In Vitro DGK Inhibition Assays—Method A
DGKζ, sequence (Q13574 other isoform, or with tags, fused parts or gaps): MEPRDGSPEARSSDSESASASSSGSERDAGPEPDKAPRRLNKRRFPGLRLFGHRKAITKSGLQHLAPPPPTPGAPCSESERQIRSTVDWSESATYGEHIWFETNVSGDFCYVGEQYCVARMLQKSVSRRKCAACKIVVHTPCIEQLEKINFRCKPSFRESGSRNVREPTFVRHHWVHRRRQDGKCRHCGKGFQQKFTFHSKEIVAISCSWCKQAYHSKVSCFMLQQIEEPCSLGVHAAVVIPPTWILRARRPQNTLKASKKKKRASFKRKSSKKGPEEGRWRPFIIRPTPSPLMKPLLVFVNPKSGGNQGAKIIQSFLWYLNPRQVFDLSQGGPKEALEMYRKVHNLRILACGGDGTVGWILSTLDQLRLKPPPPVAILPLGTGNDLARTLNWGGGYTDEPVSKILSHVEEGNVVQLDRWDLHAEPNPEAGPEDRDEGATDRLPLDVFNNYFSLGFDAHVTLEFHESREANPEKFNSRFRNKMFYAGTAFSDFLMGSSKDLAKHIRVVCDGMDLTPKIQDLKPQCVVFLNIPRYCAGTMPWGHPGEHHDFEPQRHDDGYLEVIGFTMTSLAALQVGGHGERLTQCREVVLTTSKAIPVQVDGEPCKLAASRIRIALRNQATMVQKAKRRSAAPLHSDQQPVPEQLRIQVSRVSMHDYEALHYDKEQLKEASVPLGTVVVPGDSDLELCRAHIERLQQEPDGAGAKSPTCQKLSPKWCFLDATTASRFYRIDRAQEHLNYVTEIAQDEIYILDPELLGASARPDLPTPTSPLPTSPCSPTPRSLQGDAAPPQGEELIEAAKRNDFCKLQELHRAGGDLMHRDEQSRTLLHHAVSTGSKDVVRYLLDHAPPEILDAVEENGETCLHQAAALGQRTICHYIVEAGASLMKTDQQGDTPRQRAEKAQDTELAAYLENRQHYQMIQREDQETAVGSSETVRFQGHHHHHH
The DGKα and DGKζ reactions were performed using either extruded liposome (DGKα and DGKζ LIPGLO assays) or detergent/lipid micelle substrate (DGKα and DGKζ assays). The reactions were carried out in 50 mM MOPS pH 7.5, 100 mM NaCl, 10 mM MgCl2, 1 μM CaCl2), and 1 mM DTT (assay buffer). The reactions using a detergent/lipid micelle substrate also contained 50 mM octyl B-D-glucopyranoside. The lipid substrate concentrations were 11 mM PS and 1 mM DAG for the detergent/lipid micelle reactions. The lipid substrate concentrations were 2 mM PS, 0.25 mM DAG, and 2.75 mM PC for the extruded liposome reactions. The reactions were carried out in 150 μM ATP. The enzyme concentrations for the DGKα and DGKζ were 5 nM
The compound inhibition studies were carried out as follows: 50 nL droplets of each test compound (top concentration 10 mM with 11 point, 3-fold dilution series for each compound) solubilized in DMSO were transferred to wells of a white 1536 well plate (Corning 3725). A 5 mL enzyme/substrate solution at 2× final reaction concentration was prepared by combining 2.5 mL 4× enzyme solution (20 nM DGKα or DGKζ (prepared as described below) in assay buffer) and 2.5 mL of either 4× liposome or 4× detergent/lipid micelle solution (compositions described below) and incubated at room temperature for 10 minutes. Next, 1 μL 2× enzyme/substrate solution was added to wells containing the test compound and reactions were initiated with the addition of 1 μL 300 uM ATP. The reactions were allowed to proceed for 1 hr, after which 2 μL Glo Reagent (Promega V9101) was added and incubated for 40 minutes. Next, 4 μL Kinase Detection Reagent was added and incubated for 30 minutes. Luminescence was recorded using an EnVision microplate reader. […] The compounds were evaluated at 11 concentrations to determine IC50.
The lipid composition was 5 mol % DAG (Avanti 8008110), 40 mol % PS (Avanti 840035P), and 55 mol % PC (Avanti 850457) at a total lipid concentration of 15.2 mg/mL for the 4× liposome solution. The PC, DAG, and PS were dissolved in chloroform, combined, and dried in vacuo to a thin film. The lipids were hydrated to 20 mM in 50 mM MOPS pH 7.5, 100 mM NaCl, 5 mM MgCl2, and were freeze-thawed five times. The lipid suspension was extruded through a 100 nm polycarbonate filter eleven times. […] The liposome preparation was stored at 4° C. for as long as four weeks.
Baculovirus amplification was achieved using infected Sf9 cells at 1:1500 virus/cell ratios, and grown for 65 hours at 27° C. post-transfection.
The cells were lysed using nitrogen cavitation method with a nitrogen bomb (Parr Instruments), and the lysates were clarified by centrifugation. […] The three steps column chromatography included nickel affinity resin capture (i.e. HisTrap FF crude, GE Healthcare), followed by size exclusion chromatography (i.e. HiLoad 26/600 Superdex 200 prep grade, GE Healthcare for DGK-alpha, and HiPrep 26/600 Sephacryl S 300_HR, GE Healthcare for DGK-zeta). The third step was ion exchange chromatography, and differed for the two isoforms. DGKα was polished using Q-Sepharose anion exchange chromatography (GE Healthcare). DGKζ was polished using SP Sepharose cation exchange chromatography (GE Healthcare). The proteins were delivered at concentrations of ≥2 mg/mL. The formulation buffers were identical for both proteins: 50 mM Hepes, pH 7.2, 500 mM NaCl, 10% v/v glycerol, 1 mM TCEP, and 0.5 mM EDTA.
Assay 2: In Vitro DGK Inhibition Assays—Method B
The DGKα and DGKζ reactions were performed using either extruded liposome (DGKα and DGKζ LIPGLO assays) or detergent/lipid micelle substrate (DGKα and DGKζ assays).
Consider `CC[C@H]1CN(C(C(=O)N2CCOCC2)c2ccc(C(F)(F)F)cc2)[C@H](CC)CN1c1nc(=O)n(C)c2ccc(C#N)nc12` (single isomer, unassigned) [Example 53], for which the IC50 amounted to 3290 nM.
The compound `CC[C@H]1CN(C(C(=O)N2CCOCC2)c2ccc(C(F)(F)F)cc2)[C@H](CC)CN1c1nc(=O)n(C)c2ccc(C#N)nc12` (single isomer, unassigned) [Example 54] gave an IC50 of 580 nM.
Consider `CC[C@H]1CN(C(C(=O)NCCOC)c2ccc(C(F)(F)F)cc2)[C@H](CC)CN1c1nc(=O)n(C)c2ccc(C#N)nc12` (single isomer, unassigned) [Example 56], for which 100 nM corresponded to half-maximal inhibition (IC50). Compared with the last compound, the IC50 is about 5.8-fold lower.

The values are drawn from patent US12454531B2, “Substituted piperazine derivatives useful as T cell activators” (BRISTOL-MYERS SQUIBB COMPANY, priority 2019, dated 2025).
